Legend:
Experiment in all cases: Kinase selectivity, DiscoverX scanMAX Kinase assay panel (% control)
Assay type in all cases: binding
[1] = molecular target: T1, kinases of the scanMAX Kinase assay panel (Homo sapiens, UniProt P23458); conditions: 1 uM
T1 construct: purchased DiscoverX Co. (contract measurement) scanMAX Kinase assay panel
How it was run: (§1)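 Binding-panel profiling at one concentration, 1 uM in DMSO; values are % of DMSO control after subtracting the positive-control floor. Less than 35% means activity on that kinase.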

[2] = molecular target: T2, kinases of the scanMAX Kinase assay panel (Homo sapiens, UniProt P10721, V559D/V654A); conditions: KIT(V559D, V654A); 1 uM
T2 construct: purchased DiscoverX Co. (contract measurement) scanMAX Kinase assay panel
How it was run: as §1

[3] = molecular target: T3, kinases of the scanMAX Kinase assay panel (Homo sapiens, UniProt Q86YV6); conditions: MYLK4; 1 uM
T3 construct: purchased DiscoverX Co. (contract measurement) scanMAX Kinase assay panel
T3 sequence (Q86YV6 1-388): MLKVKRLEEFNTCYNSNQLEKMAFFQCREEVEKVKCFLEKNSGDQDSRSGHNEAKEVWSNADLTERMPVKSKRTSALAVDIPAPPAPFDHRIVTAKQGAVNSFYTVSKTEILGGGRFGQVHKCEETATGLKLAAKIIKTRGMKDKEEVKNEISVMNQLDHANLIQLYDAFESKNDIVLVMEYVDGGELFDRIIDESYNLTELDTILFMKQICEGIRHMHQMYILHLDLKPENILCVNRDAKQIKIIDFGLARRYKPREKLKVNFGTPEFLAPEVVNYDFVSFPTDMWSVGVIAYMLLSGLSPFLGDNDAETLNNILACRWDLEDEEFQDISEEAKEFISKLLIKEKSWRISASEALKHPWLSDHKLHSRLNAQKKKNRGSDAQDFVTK
How it was run: as §1

[4] = molecular target: T4, kinases of the scanMAX Kinase assay panel (Homo sapiens, UniProt Q9NRP7); conditions: kinase STK36; 1 uM in DMSO
T4 construct: purchased DiscoverX Co. (contract measurement) scanMAX Kinase assay panel
T4 sequence (Q9NRP7 1-1315): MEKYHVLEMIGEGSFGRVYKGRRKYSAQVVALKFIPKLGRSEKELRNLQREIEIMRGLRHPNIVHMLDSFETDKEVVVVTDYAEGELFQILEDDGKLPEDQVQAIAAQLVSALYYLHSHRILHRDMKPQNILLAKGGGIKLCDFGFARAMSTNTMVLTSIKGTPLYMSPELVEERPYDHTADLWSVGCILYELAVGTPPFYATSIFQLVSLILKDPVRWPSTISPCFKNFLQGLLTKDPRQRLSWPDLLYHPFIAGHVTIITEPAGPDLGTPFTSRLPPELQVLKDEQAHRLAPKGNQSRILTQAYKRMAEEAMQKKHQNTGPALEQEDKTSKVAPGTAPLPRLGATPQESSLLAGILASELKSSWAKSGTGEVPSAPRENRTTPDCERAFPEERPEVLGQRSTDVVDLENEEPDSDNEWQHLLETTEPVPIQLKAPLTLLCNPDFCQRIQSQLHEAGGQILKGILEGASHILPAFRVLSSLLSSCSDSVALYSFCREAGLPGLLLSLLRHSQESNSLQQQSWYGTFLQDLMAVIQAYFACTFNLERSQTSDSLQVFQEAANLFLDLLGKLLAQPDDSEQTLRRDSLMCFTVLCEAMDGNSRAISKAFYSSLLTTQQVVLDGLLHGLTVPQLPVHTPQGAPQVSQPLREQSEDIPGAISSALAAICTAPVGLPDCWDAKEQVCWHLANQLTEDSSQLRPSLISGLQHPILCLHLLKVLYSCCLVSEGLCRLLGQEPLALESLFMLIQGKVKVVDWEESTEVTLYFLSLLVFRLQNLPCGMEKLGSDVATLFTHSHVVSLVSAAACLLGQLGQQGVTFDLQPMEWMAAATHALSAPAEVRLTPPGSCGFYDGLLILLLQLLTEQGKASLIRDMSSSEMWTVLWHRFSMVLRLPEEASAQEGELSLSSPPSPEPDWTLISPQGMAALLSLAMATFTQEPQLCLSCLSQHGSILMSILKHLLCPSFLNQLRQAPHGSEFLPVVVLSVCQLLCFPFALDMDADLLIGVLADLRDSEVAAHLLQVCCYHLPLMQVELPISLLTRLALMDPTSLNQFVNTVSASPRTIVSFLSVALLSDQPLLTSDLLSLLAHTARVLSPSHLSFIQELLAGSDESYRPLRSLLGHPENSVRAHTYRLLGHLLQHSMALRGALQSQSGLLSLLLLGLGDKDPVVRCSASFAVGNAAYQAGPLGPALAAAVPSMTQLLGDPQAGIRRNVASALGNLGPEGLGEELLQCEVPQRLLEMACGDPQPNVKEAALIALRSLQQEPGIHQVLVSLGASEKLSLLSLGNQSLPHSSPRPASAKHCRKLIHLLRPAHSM
How it was run: as §1

[5] = molecular target: T5, kinases of the scanMAX Kinase assay panel (Homo sapiens, UniProt P42684); conditions: ABL2; 1 uM
T5 construct: purchased DiscoverX Co. (contract measurement) scanMAX Kinase assay panel
How it was run: as §1

T5 sequence (P42684 whole entry): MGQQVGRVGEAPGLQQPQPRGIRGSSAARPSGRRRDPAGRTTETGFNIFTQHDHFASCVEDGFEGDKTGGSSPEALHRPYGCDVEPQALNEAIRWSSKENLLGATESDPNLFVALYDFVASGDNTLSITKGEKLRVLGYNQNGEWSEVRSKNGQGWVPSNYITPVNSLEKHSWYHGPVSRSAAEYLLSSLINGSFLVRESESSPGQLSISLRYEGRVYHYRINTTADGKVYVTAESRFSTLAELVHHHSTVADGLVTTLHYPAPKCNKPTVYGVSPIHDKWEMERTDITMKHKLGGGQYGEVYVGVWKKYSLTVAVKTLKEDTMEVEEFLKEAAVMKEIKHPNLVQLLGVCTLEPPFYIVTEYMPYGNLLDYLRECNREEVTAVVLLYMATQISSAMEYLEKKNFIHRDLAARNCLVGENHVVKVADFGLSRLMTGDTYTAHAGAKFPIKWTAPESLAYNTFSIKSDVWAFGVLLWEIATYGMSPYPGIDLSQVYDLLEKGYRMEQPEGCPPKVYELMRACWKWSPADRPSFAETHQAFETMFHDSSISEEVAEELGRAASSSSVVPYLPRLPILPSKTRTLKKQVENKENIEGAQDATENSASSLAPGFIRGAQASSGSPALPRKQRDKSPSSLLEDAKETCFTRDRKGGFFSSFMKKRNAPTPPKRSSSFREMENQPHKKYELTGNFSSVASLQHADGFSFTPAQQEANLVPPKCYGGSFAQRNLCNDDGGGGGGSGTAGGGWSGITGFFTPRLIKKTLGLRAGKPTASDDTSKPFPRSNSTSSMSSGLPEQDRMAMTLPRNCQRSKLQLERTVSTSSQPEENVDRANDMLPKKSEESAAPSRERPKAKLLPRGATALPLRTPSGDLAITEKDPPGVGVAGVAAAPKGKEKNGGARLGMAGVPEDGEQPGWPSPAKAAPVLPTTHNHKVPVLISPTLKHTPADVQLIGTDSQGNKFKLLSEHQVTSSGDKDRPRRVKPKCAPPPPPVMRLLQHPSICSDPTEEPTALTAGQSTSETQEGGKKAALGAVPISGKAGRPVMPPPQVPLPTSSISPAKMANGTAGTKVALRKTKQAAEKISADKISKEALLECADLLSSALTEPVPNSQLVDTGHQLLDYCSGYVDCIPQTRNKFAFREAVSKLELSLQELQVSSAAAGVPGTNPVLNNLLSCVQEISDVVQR
T1 sequence (P23458 whole entry): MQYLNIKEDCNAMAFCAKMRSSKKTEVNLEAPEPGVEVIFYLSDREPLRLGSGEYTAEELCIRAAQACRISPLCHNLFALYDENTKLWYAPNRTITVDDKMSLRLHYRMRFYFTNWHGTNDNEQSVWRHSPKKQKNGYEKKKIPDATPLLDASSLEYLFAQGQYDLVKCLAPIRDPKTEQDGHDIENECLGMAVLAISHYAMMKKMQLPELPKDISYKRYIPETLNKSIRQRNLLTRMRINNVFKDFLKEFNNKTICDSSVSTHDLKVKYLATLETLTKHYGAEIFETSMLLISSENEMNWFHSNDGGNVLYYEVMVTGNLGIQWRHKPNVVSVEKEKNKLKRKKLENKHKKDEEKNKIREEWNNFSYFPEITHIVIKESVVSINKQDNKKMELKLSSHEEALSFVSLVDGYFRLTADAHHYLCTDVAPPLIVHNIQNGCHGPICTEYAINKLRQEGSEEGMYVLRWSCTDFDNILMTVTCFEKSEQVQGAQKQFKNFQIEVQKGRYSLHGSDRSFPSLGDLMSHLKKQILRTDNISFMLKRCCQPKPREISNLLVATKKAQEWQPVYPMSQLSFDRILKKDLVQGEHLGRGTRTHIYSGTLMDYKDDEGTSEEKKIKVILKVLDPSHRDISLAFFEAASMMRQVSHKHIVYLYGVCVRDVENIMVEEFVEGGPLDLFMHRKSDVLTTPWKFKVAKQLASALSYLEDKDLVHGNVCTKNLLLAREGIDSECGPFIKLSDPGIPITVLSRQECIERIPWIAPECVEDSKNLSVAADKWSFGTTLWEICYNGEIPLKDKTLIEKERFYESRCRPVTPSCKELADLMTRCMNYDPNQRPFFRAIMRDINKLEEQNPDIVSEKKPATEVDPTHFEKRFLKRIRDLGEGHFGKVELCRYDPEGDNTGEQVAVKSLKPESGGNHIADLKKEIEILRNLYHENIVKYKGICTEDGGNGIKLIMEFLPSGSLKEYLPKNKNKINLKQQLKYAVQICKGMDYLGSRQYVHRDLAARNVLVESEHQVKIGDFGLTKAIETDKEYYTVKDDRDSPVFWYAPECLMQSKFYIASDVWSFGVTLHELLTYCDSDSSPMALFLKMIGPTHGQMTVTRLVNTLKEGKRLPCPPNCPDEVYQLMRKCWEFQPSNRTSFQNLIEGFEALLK
T2 sequence (P10721 26-976 V559D/V654A): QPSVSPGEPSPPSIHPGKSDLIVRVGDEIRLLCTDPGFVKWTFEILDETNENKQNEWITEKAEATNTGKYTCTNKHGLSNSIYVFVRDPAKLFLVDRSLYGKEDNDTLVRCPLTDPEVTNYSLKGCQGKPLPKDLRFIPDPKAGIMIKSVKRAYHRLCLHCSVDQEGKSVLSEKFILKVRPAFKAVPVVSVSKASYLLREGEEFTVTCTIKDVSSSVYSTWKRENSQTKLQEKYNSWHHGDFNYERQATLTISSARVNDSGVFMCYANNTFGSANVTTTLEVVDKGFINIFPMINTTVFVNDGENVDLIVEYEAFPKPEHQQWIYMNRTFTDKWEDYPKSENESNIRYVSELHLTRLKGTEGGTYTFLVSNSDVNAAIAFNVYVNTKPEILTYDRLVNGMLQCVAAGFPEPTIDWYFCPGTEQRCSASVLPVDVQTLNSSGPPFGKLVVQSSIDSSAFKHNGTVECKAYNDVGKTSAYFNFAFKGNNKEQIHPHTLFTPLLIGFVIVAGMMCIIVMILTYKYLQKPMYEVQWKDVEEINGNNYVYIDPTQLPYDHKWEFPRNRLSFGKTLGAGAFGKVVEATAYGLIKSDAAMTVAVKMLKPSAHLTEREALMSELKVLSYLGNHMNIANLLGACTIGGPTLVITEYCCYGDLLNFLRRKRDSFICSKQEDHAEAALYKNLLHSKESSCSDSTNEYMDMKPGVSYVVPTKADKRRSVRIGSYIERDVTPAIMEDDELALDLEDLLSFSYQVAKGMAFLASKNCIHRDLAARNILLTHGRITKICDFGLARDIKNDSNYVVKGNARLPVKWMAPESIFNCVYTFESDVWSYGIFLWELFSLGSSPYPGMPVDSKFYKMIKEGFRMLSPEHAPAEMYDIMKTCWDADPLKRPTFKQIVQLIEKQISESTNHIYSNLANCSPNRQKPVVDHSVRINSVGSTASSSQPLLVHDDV

Row | Compound | remaining binding at 1 µM ([1]; JAK1(JH1domain-catalytic)) [%] | remaining binding at 1 µM ([1]; JAK1(JH2domain-pseudokinase)) [%] | remaining binding at 1 µM [2] [%] | remaining binding at 1 µM [3] [%] | remaining binding at 1 µM [4] [%] | remaining binding at 1 µM [5] [%]
1 | CC1(Nc2nc(Nc3cnn([C@H]4CCN(C5COC5)C[C@@H]4F)c3Cl)nc3[nH]cc(C#N)c23)CC1 [Example 52, 2-((5-chloro-1-((3S,4S)-3-fluoro-1-(oxetane-3-yl)piperidine-4-yl)-1H-pyrazole-4-yl)amino)((1-methylcyclopropyl)amino)-7H-pyrrolo[2,3-d]pyrimidine-5-carbonitrile] | 44 | 0 | 0.9 | 82 | 85 | 34
2 | CNc1nc(Nc2ccc(C(=O)N3CCOCC3)cc2OC)nc2[nH]cc(C#N)c12 [Example 1, 2-((2-methoxy-4-(morpholine-4-carbonyl)phenyl)amino)-4-(methylamino)-7H-pyrrolo[2,3-d]pyrimidine-5-carbonitrile] | 92 | 14 | 76 | 90 | 97 | 99
3 | CCNc1nc(Nc2ccc(C(=O)N3CCC(N4CCOCC4)CC3)cc2OC)nc2[nH]cc(C(F)(F)F)c12 [Example 104, (4-((4-(ethylamino)-5-(trifluoromethyl)-7H-pyrrolo[2,3-d]pyrimidine-2-yl)amino)-3-methoxyphenyl)(4-morpholinopiperidine-1-yl)methanone] | 100 | 55 | 94 | 89 | 100 | 100
